Results on ten compounds are retold here after patent US7625890B2, “Substituted imidazo[4,5-c]pyridine compounds as Akt inhibitors” (SmithKline Beecham Corp., priority 2005, dated 2009).

Each structure is given as a SMILES string. In brackets after ≈: the same amount, converted by molar mass. Structures can show the parent of a compound that is named as a salt.

The nature of this data set: Solubility. To be noted: for solubility: aqueous buffer, 50 mM phosphate buffer, pH 7.4; for solubility, suitability for IV dosage forms: statement in words. Type of data set: physicochemical.

As for `CCn1c(-c2nonc2N)nc2c(C#CC(C)(C)O)ncc(OC[C@@H]3CNCCS3)c21` (single isomer, unassigned; enantiomer e1) [Example 3, 4-{2-(4-amino-1,2,5-oxadiazol-3-yl)-1-ethyl-7-[(2-thiomorpholinylmethyl)oxy]-1H-imidazo[4,5-c]pyridin-4-yl}-2-methyl-3-butyn-2-ol dihydrochloride (enantiomer E1)], the solubility was determined as 110 µM and the “solubility, suitability for IV dosage forms” value (shortened to “solubility, suitability”) was “suitable for formulation into dosage forms for IV administration”. As to `CCn1c(-c2nonc2N)nc2c(C#CC(C)(C)O)ncc(OC[C@@H]3CN(C)CCS3)c21` (single isomer, unassigned; enantiomer e1) [Example 7, 4-(2-(4-amino-1,2,5-oxadiazol-3-yl)-1-ethyl-7-{[(4-methyl-2-thiomorpholinyl)methyl]oxy}-1H-imidazo[4,5-c]pyridin-4-yl)-2-methyl-3-butyn-2-ol (enantiomer E1)], the solubility stood at 23 µM (≈ 10.5 µg/mL).

Regarding `CCn1c(-c2nonc2N)nc2c(C#CC(C)(C)O)ncc(OCC3CNCC(C)O3)c21` (stereo in doubt) [Example 9, 4-[2-(4-amino-1,2,5-oxadiazol-3-yl)-1-ethyl-7-({[(2R)-6-methyl-2-morpholinyl]methyl}oxy)-1H-imidazo[4,5-c]pyridin-4-yl]-2-methyl-3-butyn-2-ol, dihydrochloride], the solubility was 129 µM and the “solubility, suitability” value is “suitable for formulation into dosage forms for IV administration”. For the compound `CCn1c(-c2nonc2N)nc2c(C#CC(C)(C)O)ncc(OC[C@H]3CCCNC3)c21` [Example 1, 4-(2-(4-amino-1,2,5-oxadiazol-3-yl)-1-ethyl-7-{[(3S)-3-Piperidinylmethyl]oxy}-1H-imidazo[4,5-c]pyridin-4-yl)-2-methyl-3-butyn-2-ol], the solubility was determined as 210 µM (≈ 89.4 µg/mL) and the “solubility, suitability” value is “suitable for formulation into dosage forms for IV administration”.

Compound `CCn1c(-c2nonc2N)nc2c(C#CC(C)(C)O)ncc(OC[C@H]3CNCCO3)c21` [Example 2, 4-(2-(4-amino-1,2,5-oxadiazol-3-yl)-1-ethyl-7-{[(2R)-2-morpholinylmethyl]oxy}-1H-imidazo[4,5-c]pyridin-4-yl)-2-methyl-3-butyn-2-ol dihydrochloric acid salt] yielded a solubility of 188 µM. As for `CCn1c(-c2nonc2N)nc2c(C#CC(C)(C)O)ncc(OC[C@@H]3CNCCO3)c21` [Example 4, 4-(2-(4-amino-1,2,5-oxadiazol-3-yl)-1-ethyl-7-{[(2S)-2-morpholinylmethyl]oxy}-1H-imidazo[4,5-c]pyridin-4-yl)-2-methyl-3-butyn-2-ol], the solubility stood at 154 µM (≈ 65.8 µg/mL) and the “solubility, suitability” value is “suitable for formulation into dosage forms for IV administration”. `CCn1c(-c2nonc2N)nc2c(C#CC(C)(C)O)ncc(OCC3CCNC3)c21` (centres unmarked) [Example 5, 4-{2-(4-amino-1,2,5-oxadiazol-3-yl)-1-ethyl-7-[(3-Pyrrolidinylmethyl)oxy]-1H-imidazo[4,5-c]pyridin-4-yl}-2-methyl-3-butyn-2-ol, bis-trifluoroacetic acid salt]: the solubility was found to be 83 µM. This lies in the double-digit micromolar range. Consider `CCn1c(-c2nonc2N)nc2c(C#CC(C)(C)O)ncc(OC[C@H]3CCCN(C)C3)c21` [Example 6, 4-[2-(4-amino-1,2,5-oxadiazol-3-yl)-1-ethyl-7-({[(3S)-1-methyl-3-piperidinyl]methyl}oxy)-1H-imidazo[4,5-c]pyridin-4-yl]-2-methyl-3-butyn-2-ol, dihydrochloride], for which the solubility was 44 µM. Compared with the last compound, the solubility is about 1.9-fold lower. The same measure, in the same setting: with `CCn1c(-c2nonc2N)nc2c(C#CC(C)(C)O)ncc(OC[C@@H]3CN(C)CCO3)c21` [Example 8, 4-[2-(4-amino-1,2,5-oxadiazol-3-yl)-1-ethyl-7-({[(2S)-4-methyl-2-morpholinyl]methyl}oxy)-1H-imidazo[4,5-c]pyridin-4-yl]-2-methyl-3-butyn-2-ol] the figure was 34 µM (≈ 15 µg/mL); with `CCN1CCO[C@H](COc2cnc(C#CC(C)(C)O)c3nc(-c4nonc4N)n(CC)c23)C1` [Example 10, 4-[2-(4-amino-1,2,5-oxadiazol-3-yl)-1-ethyl-7-({[(2S)-4-ethyl-2-morpholinyl]methyl}oxy)-1H-imidazo[4,5-c]pyridin-4-yl]-2-methyl-3-butyn-2-ol], 6 µM (≈ 2.73 µg/mL).
